The record followed here is ChEMBL document CHEMBL5723582, “Data for DCP probe T-10430” (2024).

The EC50 is the concentration that produces a half-maximal response. The low end stands for greater potency, the high end for weaker potency.

The assay deals with Leukotriene B4 receptor 1 (Homo sapiens, UniProt Q15722). Kind of assay: IP-One assay (LTB4R), antagonist mode at up to 50 µM ( vs. 300 nM LTB4). It counts as functional. Set-up: compound concentration < 50 uM.
Chain of Leukotriene B4 receptor 1 (Q15722 whole entry): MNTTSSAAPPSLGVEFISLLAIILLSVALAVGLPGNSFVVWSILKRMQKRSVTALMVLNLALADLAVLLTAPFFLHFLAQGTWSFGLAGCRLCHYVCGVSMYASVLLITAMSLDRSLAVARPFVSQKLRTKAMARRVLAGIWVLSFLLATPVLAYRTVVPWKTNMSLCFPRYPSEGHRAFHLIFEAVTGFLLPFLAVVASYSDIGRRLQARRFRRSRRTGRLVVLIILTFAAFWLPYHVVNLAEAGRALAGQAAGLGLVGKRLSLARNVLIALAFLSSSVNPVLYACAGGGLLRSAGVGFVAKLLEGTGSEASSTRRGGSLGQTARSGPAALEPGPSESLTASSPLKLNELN

On to `CCCCC(=O)N1CC2(CCN(c3ccccc3-c3nnn[nH]3)CC2)C1`, for which the concentration for a half-maximal effect (EC50) is > 50 µM (not active).
